US20190030018A1 (Celgene Corporation, priority 2017, published 2019)

Tested on: 563 solid tumor cell lines
Assay: Luminex assay in PRISM, 5 days treatment (AUC)
Format: cell-based
Parameters: AUC: scale not given here
Protocol: The AUC values provided in Table 80 below were calculated based on the Median Fluorescent Intensity values, the primary read out of the Luminex assay in PRISM. The following parameters were used in this assay: • 8 point dose was used in triplicate • max concentration of 10 μM was used with serial 4-fold dilutions (low of […]) • 563 adherent cell lines in 23 pools. • treatment duration was 5 days.

**Q.** What does the source list for `O=C1CCC(N2Cc3cc(CNC(=O)C(F)(F)c4ccc(Cl)cc4)ccc3C2=O)C(=O)N1` (stereo not shown) [Compound 1, 2-(4-chlorophenyl)-N-((2-(2,6-dioxopiperidin-3-yl)-1-oxoisoindolin-5-yl)methyl)-2,2-difluoroacetamide]?
**A.** AUC (HCC1954_BREAST): 0.8107; AUC (HCC4006_LUNG): 0.8403; AUC (HCT15_LARGE_INTESTINE): 0.554; AUC (HCT116_LARGE_INTESTINE): 0.826; AUC (HDQP1_BREAST): 0.825; AUC (HEC1A_ENDOMETRIUM): 0.832; AUC (HEC6_ENDOMETRIUM): 0.858; AUC (HEC59_ENDOMETRIUM): 0.794; AUC (HEC108_ENDOMETRIUM): 0.812; AUC (HEC151_ENDOMETRIUM): 0.903; AUC (HEC251_ENDOMETRIUM): 0.698; AUC (HEC265_ENDOMETRIUM): 0.831; AUC (HEP3B217_LIVER): 0.596; AUC (HEPG2_LIVER): 0.511; AUC (HGC27_STOMACH): 0.846; AUC (HLF_LIVER): 0.952; AUC (HMC18_BREAST): 0.847; AUC (HOS_BONE): 0.854; AUC (HS294T_SKIN): 0.883; AUC (HS729_SOFT_TISSUE): 0.598; AUC (HS746T_STOMACH): 0.428; AUC (HS766T_PANCREAS): 0.830; AUC (HS852T_SKIN): 0.710; AUC (HS939T_SKIN): 0.836; AUC (HS944T_SKIN): 0.719; AUC (HSC2_UPPER_AERODIGESTIVE_TRACT): 0.597; AUC (HSC3_UPPER_AERODIGESTIVE_TRACT): 0.834; AUC (HT29_LARGE_INTESTINE): 0.546; AUC (HT55_LARGE_INTESTINE): 0.571; AUC (HT144_SKIN): 0.641; AUC (HT1376_URINARY_TRACT): 0.900; AUC (HUCCT1_BILIARY_TRACT): 0.533; AUC (HUH1_LIVER): 0.508; AUC (HUH6_LIVER): 0.867; AUC (HUH28_BILIARY_TRACT): 0.267; AUC (HUPT3_PANCREAS): 0.876; AUC (HUPT4_PANCREAS): 0.5948; AUC (IALM_LUNG): 0.2481; AUC (IGR37_SKIN): 0.8495; AUC (IGROV1_OVARY): 0.6978; AUC (IM95_STOMACH): 0.111; AUC (IPC298_SKIN): 0.894; AUC (ISHIKAWAHERAKLIO02ER_ENDOMETRIUM): 0.8402; AUC (ISTMES1_PLEURA): 0.1381; AUC (ISTMES2_PLEURA): 0.8192; AUC (J82_URINARY_TRACT): 0.8263; AUC (JHH1_LIVER): 0.469; AUC (JHH4_LIVER): 0.680; AUC (JHH5_LIVER): 0.806; AUC (JHH6_LIVER): 0.449; AUC (JHH7_LIVER): 0.778; AUC (JHOC5_OVARY): 0.865; AUC (JHOM1_OVARY): 0.833; AUC (JHOS2_OVARY): 0.566; AUC (JHUEM2_ENDOMETRIUM): 0.761; AUC (JIMT1_BREAST): 0.816; AUC (JL1_PLEURA): 0.591; AUC (JMSU1_URINARY_TRACT): 0.842; AUC (K029AX_SKIN): 0.834; AUC (KALS1_CENTRAL_NERVOUS_SYSTEM): 0.838; AUC (KE39_STOMACH): 0.521; AUC (KELLY_AUTONOMIC_GANGLIA): 0.591; AUC (KMBC2_URINARY_TRACT): 0.913; AUC (KMRC1_KIDNEY): 0.842; AUC (KMRC3_KIDNEY): 0.990; AUC (KMRC20_KIDNEY): 0.951; AUC (KNS42_CENTRAL_NERVOUS_SYSTEM): 0.826; AUC (KNS60_CENTRAL_NERVOUS_SYSTEM): 0.795; AUC (KNS62_LUNG): 0.842; AUC (KNS81_CENTRAL_NERVOUS_SYSTEM): 0.808; AUC (KP2_PANCREAS): 0.767; AUC (KP3_PANCREAS): 0.592; AUC (KP4_PANCREAS): 0.447; AUC (KPL1_BREAST): 0.890; AUC (KPNYN_AUTONOMIC_GANGLIA): 0.648; AUC (KU1919_URINARY_TRACT): 0.926; AUC (KURAMOCHI_OVARY): 0.857; AUC (KYSE70_OESOPHAGUS): 0.788; AUC (KYSE140_OESOPHAGUS): 0.883; AUC (KYSE150_OESOPHAGUS): 0.863; AUC (KYSE180_OESOPHAGUS): 0.865; AUC (KYSE270_OESOPHAGUS): 0.835; AUC (KYSE510_OESOPHAGUS): 0.870; AUC (KYSE520_OESOPHAGUS): 0.887; AUC (LC1SQSF_LUNG): 0.936; AUC (LI7_LIVER): 0.811; AUC (LK2_LUNG): 0.768; AUC (LN229_CENTRAL_NERVOUS_SYSTEM): 0.758; AUC (LNCAPCLONEFGC_PROSTATE): 0.672; AUC (LOXIMVI_SKIN): 0.905; AUC (LS180_LARGE_INTESTINE): 0.142; AUC (LS411N_LARGE_INTESTINE): 0.811; AUC (LS513_LARGE_INTESTINE): 0.235; AUC (LS1034_LARGE_INTESTINE): 0.223; AUC (LU99_LUNG): 0.421; AUC (LXF289_LUNG): 0.858; AUC (MALME3M_SKIN): 0.180; AUC (MCAS_OVARY): 0.845; AUC (MCF7_BREAST): 0.831; AUC (MDAMB175VII_BREAST): 0.524; AUC (MDAMB231_BREAST): 0.278; AUC (MDAMB435S_SKIN): 0.845; AUC (MELHO_SKIN): 0.907; AUC (MELJUSO_SKIN): 0.845; AUC (MEWO_SKIN): 0.267; AUC (MFE280_ENDOMETRIUM): 0.881; AUC (MFE296_ENDOMETRIUM): 0.824; AUC (MFE319_ENDOMETRIUM): 0.751; AUC (MG63_BONE): 0.968; AUC (MHHES1_BONE): 0.984; AUC (MIAPACA2_PANCREAS): 0.866; AUC (MKN1_STOMACH): 0.871; AUC (MKN7_STOMACH): 0.841; AUC (MKN45_STOMACH): 0.338; AUC (MKN74_STOMACH): 0.883
